Laboratory results reported in patent US20240285664A1, “LINE-1 INHIBITORS AS COGNITIVE ENHANCERS” (TRANSPOSON THERAPEUTICS, INC., priority 2021, published 2024).
“Also recorded” adds a separate entry of the source. Read-outs that look alike come from different tables or passages of the source.

Test system: human LINE-1
Test: Human LINE-1 retrotransposition assay (HeLa cell-based dual-luciferase reporter)
Details: HeLa cells; for IC50: reporter plasmid pYX017, 72 h incubation, Firefly/Renilla luciferase, read-out: Human LINE-1 IC50 (μM), Human L1 activity inhibition; for human LINE-1 inhibitor activity compared to the other reverse transcriptase inhibitors tested (in words): summary of Table 1
Method: Islatravir and other compounds were tested for inhibition of retrotransposition activity of human LINE-1 in HeLa cells according to the following procedure.
HeLa cervical cancer cells were cultivated at 37° C. in a humidified 5% CO2 incubator in Dulbecco's Modified Eagle's Medium (DMEM)—high glucose, with 4500 mg/L glucose, L-glutamine, sodium pyruvate and sodium bicarbonate (Sigma), supplemented with 10% of heat inactivated fetal bovine serum (Thermo Fisher).
Assays were performed using reporter plasmid pYX017 as described (Xie, et al., 2011) with several modifications. The reporter assay was performed in 96-well white optical bottom plates. HeLa cells were seeded in wells 24 h prior to transfection and compound treatment so that cells were approximately 30% confluent on the day of transfection. Different cell plating densities were tested and a density of 2×10^3 cells was determined to be optimal.
Compounds were resuspended in DMSO. Serial dilutions (1:3) were prepared in DMSO. Medium containing different concentrations of the compounds were prepared by adding 2 μl of the compound dilution to 1 ml of the culture medium. The final concentration of DMSO in the medium was 0.2%.
FuGENE® HD transfection reagent (Promega, E2311, Lot 382574 and Lot 397842) was used to transfect the plasmids into the cells. The transfection reagent: DNA mixture was prepared in OpiMEM (Thermo Fisher) according to manufacturer's instructions. Different ratios of transfection reagent to DNA were tested and a ratio of 3:1 was determined to be optimal. Culture medium was removed from the cells and discarded. The transfection reagent: DNA mixture (5 μl) was mixed with the compound containing medium (100 μl/well) and this was added onto the cells of each well. Cells were incubated at 37° C./5% C02 for different incubation time. A 72 h incubation time was determined to be optimal.
Luciferase reporter activity was quantified with the Dual-Luciferase® Reporter Assay System (Promega) according to manufacturer's instructions for multiwell plates except that cells were lysed directly on the multiwell plate with 30 μl of the passive lysis buffer (PLB) for 20 min at room temperature, with gentle shaking to ensure complete cell lysis.
Firefly and Renilla luciferase signals were measured using a SpectraMax i3x Multi-Mode Microplate Reader. Integration times of 100 ms and 10 ms were used to measure the Firefly and Renilla signals respectively. Relative L1 activity is calculated as Firefly/Renilla*1000 or Firefly/Renilla*10,000. Dose response inhibition data were fit to a four parameter logistic equation using non-linear regression (using Graphpad Prism 8), to determine IC50 values for each inhibitor.

SMILES	IC50 (Homo sapiens) [µM]	other results
CC[C@]1(CO)O[C@@H](n2cnc3c(O)nc(N)nc32)C[C@@H]1O [Cpd. No. 27]	0.003	
C#C[C@@]1(CO)C=C[C@H](n2cc(C)c(=O)[nH]c2=O)O1 [Censavudine, 4′-ethynylstavudine]	0.07	human LINE-1 inhibitor activity compared to the other reverse transcriptase inhibitors tested (in words): unexpectedly better human LINE-1 inhibitor activity; also recorded: surprisingly potent
C#C[C@]1(CO)O[C@@H](n2cnc3c(O)nc(N)nc32)C[C@@H]1O [Cpd. No. 13]	0.00051	
Cc1nnc(C(=O)NC(C)(C)c2nc(C(=O)NCc3ccc(F)cc3)c(O)c(=O)n2C)o1 [Raltegravir potassium]	> 9.86	
C#C[C@]1(CO)O[C@@H](n2cc(C)c(O)nc2=O)C[C@@H]1O [Cpd. No. 2]	0.393	
C#C[C@]1(CO)O[C@@H](n2ccc(N)nc2=O)C[C@@H]1O [Cpd. No. 7, 4-amino-1-((2R,4S,5R)-5-ethynyl-4-hydroxy-5 (hydroxymethyl)tetrahydrofuran-2-yl)pyrimidin-2(1H)-one]	0.0091	
Cc1ccnc2c1NC(=O)c1cccnc1N2C1CC1 [Nevirapine]	> 50	
C#C[C@]1(CO)O[C@@H](n2cc(F)c(N)nc2=O)C[C@@H]1O [Cpd. No. 9]	0.0209	
C[C@H](Cn1cnc2c(N)ncnc21)OCP(=O)(O)O [Tenofovir]		IC50: 2.77 µM
C#C[C@]1(CO)O[C@@H](n2cnc3c(N)nc(F)nc32)C[C@@H]1O [Islatravir, 2′-deoxy-4′-ethynyl-2-fluoroadenosine]		human LINE-1 inhibitor activity compared to the other reverse transcriptase inhibitors tested (in words): unexpectedly better human LINE-1 inhibitor activity; human LINE-1 inhibitor activity compared to the other reverse transcriptase inhibitors tested (in words) (listed as islatravir): surprisingly potent
O=C1Nc2ccc(Cl)cc2[C@@](C#CC2CC2)(C(F)(F)F)O1 [Efavirenz]	> 0.25	
O=C(NCc1c(F)cc(F)cc1F)c1cn2c(c(O)c1=O)C(=O)N1[C@H]3CC[C@H](C3)O[C@@H]1C2 [Bictegravir]	> 12.4	
CC[C@]1(CO)O[C@@H](n2cc(C)c(=O)[nH]c2=O)C[C@@H]1O [Cpd. No. 26]	2	
Nc1ccn([C@@H]2CS[C@H](CO)O2)c(=O)n1 [Lamivudine]	0.64	
Cc1cn([C@H]2C[C@H](N=[N+]=[N-])[C@@H](CO)O2)c(=O)[nH]c1=O [Zidovudine]	0.81	
C=C[C@]1(CO)O[C@@H](n2cnc3c(N)nc(F)nc32)C[C@@H]1O [Cpd. No. 20]	0.011	
CC(C)OC(=O)OCOP(=O)(CO[C@H](C)Cn1cnc2c(N)ncnc21)OCOC(=O)OC(C)C [Tenofovir disoproxil]	0.2	
C#C[C@]1(CO)O[C@@H](n2cc(Br)c(O)nc2=O)C[C@@H]1O [Cpd. No. 4]	0.489	
Cc1cn([C@H]2C=C[C@@H](CO)O2)c(=O)[nH]c1=O [Stavudine]	0.75	
C=C[C@]1(CO)O[C@@H](n2ccc(N)nc2=O)C[C@@H]1O [Cpd. No. 24]	0.008	
C#C[C@]1(CO)O[C@@H](n2cnc3c(N)ncnc32)C[C@@H]1O [Cpd. No. 23]	> 50	
C[C@@H]1CCO[C@H]2Cn3cc(C(=O)NCc4ccc(F)cc4F)c(=O)c(O)c3C(=O)N12 [Dolutegravir sodium]	> 9.38	
Nc1nc(=O)n([C@@H]2C=C[C@H](CO)O2)cc1F [Elvucitabine]	0.09	
Cc1cc(/C=C/C#N)cc(C)c1Nc1ccnc(Nc2ccc(C#N)cc2)n1 [Rilpivirine]	> 15.1	
